The target of experiment [1] is T1, human somatostatin receptor subtype sst4 (Homo sapiens, UniProt P31391).
T1 construct: expressed in transfected cells; host or cells: CHO cells (membranes)
The experiment in a line: Competition binding with 125I-LTT-SRIF-28, CHO cell membranes, sst4. The protocol:
(§1) The affinity of the compounds of the invention for the five human somatostatin receptor subtypes (sst1, sst2, sst3, sst4, and sst5) was determined in competition binding assays with (^125I-Tyr)-[Leu^8, DTrp^22]-Somatostatin-28 (^125I-LTT-SRIF-28). The biological material for these experiments consisted of membranes from Chinese hamster ovary (CHO) cells stably transfected with one of the five human somatostatin receptor subtypes. Membranes (3-20 μg of total protein per sample) and trace amount of ^125I-LTT-SRIF-28 were incubated in 10 mM Hepes, 1 mM EDTA, 5 mM MgCl2, 5 mg/ml of BSA and 30 μg/ml bacitracin, pH 7.6, with six concentrations of the compounds. Each concentration was run in duplicate. Nonspecific binding was defined by 1 μM somatostatin-14 (SRIF-14) and corresponded to 5-25% of total binding. After 60 min at room temperature, incubations were terminated by rapid vacuum filtration through GF/B glass fiber filter mats (presoaked at 4° C. in 200 ml of 10 mM Hepes, 1 mM EDTA, 5 mM MgCl2, pH 7.6) and three 5 ml washes with ice-cold wash buffer (20 mM TRIS, 1 mM EDTA, 5 mM MgCl2, pH 7.4). The filters were then dried, impregnated with scintillate and their radioactivity was measured by scintillation counting. The analysis of the experiments was carried out by nonlinear least square curve fitting. Affinity constants (Ki) were calculated from the IC50 values according to the Cheng-Prusoff's equation (Cheng and Prusoff, 1973). Experiments were repeated a minimum of three times.

Experiment [2] deals with T2, human somatostatin receptor subtype sst3 (Homo sapiens, UniProt P32745).
T2 construct: expressed in transfected cells; host or cells: CHO cells (membranes)
Description: Competition binding with 125I-LTT-SRIF-28, CHO cell membranes, sst3. Particulars: membranes of CHO cells transfected with human sst3. The method, then: as §1, with “The analysis of the experiments was carried out by nonlinear least square curve fitting.” left out, “Experiments were repeated a minimum of three times.” left out

Experiment [3] has as its target T3, human somatostatin receptor subtype sst1 (Homo sapiens, UniProt P30872).
T3 construct: expressed in transfected cells; host or cells: CHO cells (membranes)
Description: Competition binding with 125I-LTT-SRIF-28, CHO cell membranes, sst1. The protocol:
as §1

Experiment [4] concerns the target T4, human somatostatin receptor subtype sst2 (Homo sapiens, UniProt P30874).
T4 construct: expressed in transfected cells; host or cells: CHO cells (membranes)
Description: Competition binding with 125I-LTT-SRIF-28, CHO cell membranes, sst2. The note with it: membranes of CHO cells transfected with human sst2. The method, then:
as §1, with “The analysis of the experiments was carried out by nonlinear least square curve fitting.” left out, “Experiments were repeated a minimum of three times.” left out

In experiment [5] the target is T5, human somatostatin receptor subtype sst5 (Homo sapiens, UniProt P35346).
T5 construct: expressed in transfected cells; host or cells: CHO cells (membranes)
Description: Competition binding with 125I-LTT-SRIF-28, CHO cell membranes, sst5. Particulars: membranes of CHO cells transfected with human sst5. The protocol: as §1, with “The analysis of the experiments was carried out by nonlinear least square curve fitting.” left out, “Experiments were repeated a minimum of three times.” left out

For experiment [6] the following is noted: clinical trials; Eriksen et al. 1995, van Essen et al. 1997; cited from earlier work.
Setting [7] is: membranes of CHO cells transfected with human sst4, read-out: sst4 Ki.
[8] abbreviates: membranes of CHO cells transfected with human sst1, read-out: sst1 Ki.
Setting [9] is: bound only, read-out: Ki values for the sst4.
Setting [10] is: bound only, read-out: Ki values for the sst1.

Structures can show the parent of a compound that is named as a salt. Where two headings read alike, the source gives them in different places.

T3 sequence (P30872 whole entry): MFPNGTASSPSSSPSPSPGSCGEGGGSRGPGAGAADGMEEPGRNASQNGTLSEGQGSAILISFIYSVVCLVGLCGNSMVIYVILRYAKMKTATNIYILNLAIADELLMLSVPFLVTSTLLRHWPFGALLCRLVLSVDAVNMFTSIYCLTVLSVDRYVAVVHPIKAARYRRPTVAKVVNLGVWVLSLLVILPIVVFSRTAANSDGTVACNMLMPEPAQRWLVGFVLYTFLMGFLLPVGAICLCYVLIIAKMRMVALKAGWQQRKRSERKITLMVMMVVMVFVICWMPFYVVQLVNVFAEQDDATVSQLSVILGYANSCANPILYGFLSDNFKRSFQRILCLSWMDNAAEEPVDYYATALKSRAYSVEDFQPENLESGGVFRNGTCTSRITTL
T1 sequence (P31391 whole entry): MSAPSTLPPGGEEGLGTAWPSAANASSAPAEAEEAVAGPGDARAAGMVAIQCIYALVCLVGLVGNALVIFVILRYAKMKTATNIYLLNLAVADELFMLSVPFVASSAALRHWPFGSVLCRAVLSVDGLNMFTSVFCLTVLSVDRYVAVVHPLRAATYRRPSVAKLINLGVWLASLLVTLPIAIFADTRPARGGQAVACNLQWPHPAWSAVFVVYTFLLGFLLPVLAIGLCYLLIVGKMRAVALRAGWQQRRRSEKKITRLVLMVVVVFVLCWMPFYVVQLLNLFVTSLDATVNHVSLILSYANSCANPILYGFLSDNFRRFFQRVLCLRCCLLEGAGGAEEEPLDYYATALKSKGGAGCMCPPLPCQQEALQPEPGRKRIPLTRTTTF
T2 sequence (P32745 whole entry): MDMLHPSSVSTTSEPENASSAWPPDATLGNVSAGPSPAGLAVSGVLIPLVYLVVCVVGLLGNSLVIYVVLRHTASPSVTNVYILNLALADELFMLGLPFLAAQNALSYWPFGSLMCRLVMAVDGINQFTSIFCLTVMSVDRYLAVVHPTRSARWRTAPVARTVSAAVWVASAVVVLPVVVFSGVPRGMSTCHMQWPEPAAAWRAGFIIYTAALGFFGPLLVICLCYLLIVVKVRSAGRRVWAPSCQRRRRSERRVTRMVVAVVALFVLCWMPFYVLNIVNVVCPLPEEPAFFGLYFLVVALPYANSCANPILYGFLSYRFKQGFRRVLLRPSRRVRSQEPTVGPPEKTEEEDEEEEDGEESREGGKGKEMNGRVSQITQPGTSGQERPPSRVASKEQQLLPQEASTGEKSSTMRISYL
T5 sequence (P35346 whole entry): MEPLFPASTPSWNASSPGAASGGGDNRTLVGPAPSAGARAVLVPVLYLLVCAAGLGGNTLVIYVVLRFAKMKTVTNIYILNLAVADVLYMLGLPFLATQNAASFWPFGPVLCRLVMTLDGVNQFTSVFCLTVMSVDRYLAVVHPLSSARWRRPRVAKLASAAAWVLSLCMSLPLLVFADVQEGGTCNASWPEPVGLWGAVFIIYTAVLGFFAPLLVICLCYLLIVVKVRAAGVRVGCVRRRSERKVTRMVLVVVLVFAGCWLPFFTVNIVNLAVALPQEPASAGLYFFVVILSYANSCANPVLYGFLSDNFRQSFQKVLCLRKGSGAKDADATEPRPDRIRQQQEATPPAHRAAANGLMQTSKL
T4 sequence (P30874 whole entry): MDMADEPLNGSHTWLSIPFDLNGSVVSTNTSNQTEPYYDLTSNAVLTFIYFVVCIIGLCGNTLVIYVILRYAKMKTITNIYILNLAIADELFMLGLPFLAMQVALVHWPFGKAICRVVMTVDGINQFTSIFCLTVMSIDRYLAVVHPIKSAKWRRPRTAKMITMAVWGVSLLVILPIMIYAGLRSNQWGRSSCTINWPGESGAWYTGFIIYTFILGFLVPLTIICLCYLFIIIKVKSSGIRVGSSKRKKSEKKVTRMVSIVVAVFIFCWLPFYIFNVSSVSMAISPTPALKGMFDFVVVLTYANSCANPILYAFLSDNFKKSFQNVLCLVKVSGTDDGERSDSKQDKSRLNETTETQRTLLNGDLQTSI

By Ki is commonly meant the equilibrium dissociation constant of an inhibitor or competing ligand from its target. For `Cc1ccc(S(=O)(=O)N[C@@H](CCN)CNCc2ccccc2)c2ccccc12` [compound 2, (S)-4-methylnaphthalene-1-sulfonic acid (3-amino-1-benzyl-aminomethylpropyl)amide], the Ki in experiment [1] (setting [7]) was 5.6 ± 3.2 nM; in experiment [2], over 3000 nM; in experiment [3] (setting [8]) it was 200 ± 60 nM; in experiment [4] it was over 10000 nM; in experiment [5] it was over 3000 nM.

Turning to `Cc1ccc(S(=O)(=O)NC(COCc2ccccc2)CC2CCCN2)c2ccccc12` (stereo not shown) [compound 32, 4-methylnaphthalene-1-sulfonic acid (1-benzyloxymethyl-2-pyrrolidin-2-ylethyl)amide], the inhibition constant (Ki) in experiment [1] (setting [9]) and in experiment [3] (setting [10]) was under 300 nM each time.

For the molecule `Cc1ccc(S(=O)(=O)N[C@@H](CCCNC(C)C)COc2ccccc2)c2ccccc12` [compound 33, (S)-4-methylnaphthalene-1-sulfonic acid (4-isopropylamino-1-phenoxymethylbutyl)amide], the inhibitory constant (Ki) in experiment [1] (setting [9]) is under 300 nM; in experiment [1] (setting [7]), 110 ± 10 nM; in experiment [2] it was over 3000 nM; in experiment [3] (setting [10]) it was under 300 nM; in experiment [3] (setting [8]), 9.6 ± 0.5 nM; in experiment [4], over 10000 nM. Besides, the inhibition constant (Ki) in experiment [5] is over 3000 nM.

For the molecule `Cc1ccc(S(=O)(=O)N[C@@H](CCCNC(C)C)COCc2ccccc2)c2ccccc12` [compound 62, (S)-4-methylnaphthalene-1-sulfonic acid (1-benzyloxymethyl-4-isopropylaminobutyl)amide], the inhibitory constant (Ki) in experiment [1] (setting [9]) and in experiment [3] (setting [10]) was under 300 nM throughout.

In the case of `Cc1ccc(S(=O)(=O)N[C@H](CCN)COCc2ccccc2)c2ccccc12` [compound 64, (R)-4-methylnaphthalene-1-sulfonic acid (3-amino-1-benzyloxymethylpropyl)amide], the inhibition constant Ki in experiment [1] (setting [9]) and in experiment [3] (setting [10]) was under 300 nM in each case.

As to `Cc1ccc(S(=O)(=O)N[C@@H](CCNC2=NCCN2)COCc2ccccc2)c2ccccc12` [compound 79, (S)-4-methylnaphthalene-1-sulfonic acid [1-benzyloxymethyl-3-(4,5-dihydro-1H-imidazol-2-ylamino)propyl]amide formic acid salt], the inhibition constant (Ki) in experiment [1] (setting [9]) and in experiment [3] (setting [10]) was under 300 nM throughout.

`CC(C)[C@@H]1NC(=O)[C@H](CCCCN)NC(=O)[C@@H](Cc2c[nH]c3ccccc23)NC(=O)[C@H](Cc2ccc(O)cc2)NC(=O)[C@@H](NC(=O)[C@H](N)Cc2ccc3ccccc3c2)CSSC[C@@H](C(=O)N[C@H](C(N)=O)[C@@H](C)O)NC1=O` [lanreotide]: in experiment [6], the “efficacy in prevention of restenosis” value is “failed to show efficacy”.

Take `C[C@@H](O)[C@@H]1NC(=O)[C@H](CCCCN)NC(=O)[C@@H](Cc2c[nH]c3ccccc23)NC(=O)[C@H](Cc2ccccc2)NC(=O)[C@@H](NC(=O)[C@H](N)Cc2ccccc2)CSSC[C@@H](C(=O)N[C@H](CO)[C@@H](C)O)NC1=O` [octreotide]: in experiment [6], the “efficacy in prevention of restenosis” value was “failed to show efficacy”.

Source of the values: US20100048549A1, “Peptidomimetics selective for the somatostatin receptor subtypes 1 and/or 4” (priority 2005, published 2010).
